The test system of this assay is SCD1 expression. The assay can be described thus: Inhibition assay: qPCR of SCD1 expression in HepG2 cells (Biological Example 1). The settings on record: Homo sapiens, 24 hours; for inhibition at 1 µM: read-out: Inhibition Percentage (%) 1 μM (SCD1 expression); for inhibition at 10 µM: read-out: Inhibition Percentage (%) 10 μM (SCD1 expression). It counts as cell-based. As to the method: HepG2 cells were grown in Dulbecco's Modified Eagle Medium (DMEM) containing 5% FBS and antibiotic-antimycotic in a humidified incubator at 37° C. with 5% CO2. All three components were purchased from ThermoFisher Scientific (Catalog numbers are 11995073, 26140079, and 15240062, respectively). Treatments were done in duplicates for each dose of each compound. For control and treated each treatment, 400,000 HepG2 cells were seeded onto 1 well of 24-well plate. After one day in culture, cells were treated with the test compound (1 μM and/or 10 μM, as indicated below in Table 1) for 24 hours in DMEM with 5% FBS. Compounds were diluted using DMSO from 20 mM stocks. Total RNAs were extracted using RNA extraction kit (Cat #: 45001163, Fisher Scientific) or Trizol. If Trizol was used, RNAs were treated with DNase I (cat #: 18068015, ThermoFisher Scientific) before qPCR. RNA concentrations were measured on a Nanodrop. One-step qPCR were performed using SYBR Green One Step qPCR Kit (Cat #: B25002, Biotool). 10 ng RNA was used in each 10-ul reaction. Triplicate reactions were done for each RNA sample. qPCR was performed on an ABI StepOnePlus using the program: Holding stage step 1, 50° C. 3 min, step 2, 95° C. 5 min; Cycling stage (40 cycles) step 1, 95° C. 10 sec, step 2, 60° C. 30 sec. Primer sequence was as follows: SCD1, 5′-[…]-3′/5′-[…]-3′.
All data was measured in HepG2 cells. % inhibition data of SCD1 expression are provided in Table 1. % inhibition at 10 μM is provided as follows: A≥75%; 75%>B≥50%; 50%>C≥10%. % inhibition at 1 μM is provided as follows: A1≥30%; 30%>B1≥2%. NI means no inhibition in the assay at the indicated concentration of compound tested. NT means not tested.
For orientation: Real-time PCR tracks product formation cycle by cycle.

Turning to `CCCc1cc(-n2cc(-c3ccc(NC4CCOCC4)nc3)cn2)ccn1` [Example 52, 5-(1-(2-propylpyridin-4-yl)-1H-pyrazol-4-yl)-N-(tetrahydro-2H-pyran-4-yl)pyridin-2-amine], the inhibition (as a rule, the relative decrease from the control value, in per cent) at 1 µM is at least 30% and the inhibition at 10 µM was above 75%.
`CCCc1cc(-n2cc(-c3ccc(NCC4CC4)nc3)c(C)n2)ccn1` [Example 54, N-(cyclopropylmethyl)-5-(3-methyl-1-(2-propylpyridin-4-yl)-1H-pyrazol-4-yl)pyridin-2-amine]: the inhibition at 10 µM lay within 50 to 75%.
On to `CCCn1cc(-n2cc(-c3ccc(NC(C)C)nc3)cn2)ccc1=O` [Example 44, 5-(4-(6-(isopropylamino)pyridin-3-yl)-1H-pyrazol-1-yl)-1-propylpyridin-2(1H)-one], for which the inhibition at 1 µM fell in the range of 2 to 30% and the inhibition at 10 µM is above 75%.
The corresponding values for `CCCc1cc(-n2cc(-c3ccc(NS(C)(=O)=O)cc3Cl)cn2)ccn1` [Example 9, N-(3-chloro-4-(1-(2-propylpyridin-4-yl)-1H-pyrazol-4-yl)phenyl)methanesulfonamide] are at least 30% and above 75%.
On to `CCCc1cc(-n2nc(C)c(-c3ccc(NC(C)C)nc3)c2C)ccn1` [Example 36, 5-(3,5-dimethyl-1-(2-propylpyridin-4-yl)-1H-pyrazol-4-yl)-N-isopropylpyridin-2-amine], for which the inhibition at 10 µM lay in the range of 50 to 75%.
On the same count and under the same terms, then `CCCc1cc(-n2cc(-c3ccc(NC4CCCC4)nc3)cn2)ccn1` [Example 32, N-cyclopentyl-5-(1-(2-propylpyridin-4-yl)-1H-pyrazol-4-yl)pyridin-2-amine], with above 75%.
For `CCCc1cc(-n2cc(-c3ccc(NCC(C)C)cc3Cl)cn2)ccn1` [Example 14, 3-chloro-N-isobutyl-4-(1-(2-propylpyridin-4-yl)-1H-pyrazol-4-yl)aniline], the inhibition at 1 µM was at least 30% and the inhibition at 10 µM was above 75%.
Regarding `CCCc1cc(-n2cc(-c3ncc(NCC(C)C)cc3Cl)cn2)ccn1` [Example 26, 5-chloro-N-isobutyl-6-(1-(2-propylpyridin-4-yl)-1H-pyrazol-4-yl)pyridin-3-amine], the inhibition at 1 µM was at least 30% and the inhibition at 10 µM was above 75%.
Turning to `CCCc1cc(-n2cc(-c3ccc(NS(C)(=O)=O)cn3)cn2)ccn1` [Example 20, N-(6-(1-(2-propylpyridin-4-yl)-1H-pyrazol-4-yl)pyridin-3-yl)methanesulfonamide], the inhibition at 10 µM is 10 to 50%.
Consider `CCCc1cc(-n2cc(-c3ccc(NS(=O)(=O)C4CC4)cc3Cl)cn2)ccn1` [Example 10, N-(3-chloro-4-(1-(2-propylpyridin-4-yl)-1H-pyrazol-4-yl)phenyl)cyclopropanesulfonamide], for which the inhibition at 1 µM is at least 30% and the inhibition at 10 µM was above 75%.
The corresponding values for `CCCc1cc(-n2cc(-c3ncc(NC(C)C)cc3Cl)cn2)ccn1` [Example 24, 5-chloro-N-isopropyl-6-(1-(2-propylpyridin-4-yl)-1H-pyrazol-4-yl)pyridin-3-amine] are at least 30% and above 75%.
The corresponding values for `CCCc1cc(-n2nc(C)c(-c3ccc(NC4CCC4)nc3)c2C)ccn1` [Example 38, N-cyclobutyl-5-(3,5-dimethyl-1-(2-propylpyridin-4-yl)-1H-pyrazol-4-yl)pyridin-2-amine] are at least 30% and above 75%.
As for `CCCc1cc(-n2cc(-c3ccc(NC(C)C)nc3)c(C)n2)ccn1` [Example 56, N-isopropyl-5-(3-methyl-1-(2-propylpyridin-4-yl)-1H-pyrazol-4-yl)pyridin-2-amine], the inhibition at 1 µM lay in the range of 2 to 30% and the inhibition at 10 µM was above 75%.
The corresponding values for `CCCc1cc(-n2cc(-c3ccc(NCC4CC4)cc3Cl)cn2)ccn1` [Example 17, 3-chloro-N-(cyclopropylmethyl)-4-(1-(2-propylpyridin-4-yl)-1H-pyrazol-4-yl)aniline] are at least 30% and above 75%.
Take `CCCc1cc(-n2cc(-c3ccc(NS(=O)(=O)C4CC4)nc3)cn2)ccn1` [Example 5, N-(5-(1-(2-propylpyridin-4-yl)-1H-pyrazol-4-yl)pyridin-2-yl)cyclopropanesulfonamide]: the inhibition at 10 µM was 10 to 50%.
Regarding `CCCc1cc(-n2cc(-c3ncc(NS(=O)(=O)CC4CC4)cc3Cl)cn2)ccn1` [Example 29, N-(5-chloro-6-(1-(2-propylpyridin-4-yl)-1H-pyrazol-4-yl)pyridin-3-yl)-1-cyclopropylmethanesulfonamide], the inhibition at 1 µM is 2 to 30% and the inhibition at 10 µM is above 75%.
The corresponding values for `CCCc1cc(-n2cc(-c3ccc(NS(=O)(=O)CC4CC4)cn3)cn2)ccn1` [Example 19, 1-cyclopropyl-N-(6-(1-(2-propylpyridin-4-yl)-1H-pyrazol-4-yl)pyridin-3-yl)methanesulfonamide] are 2 to 30% and above 75%.
The corresponding values for `CCCn1cc(-n2cc(-c3ccc(NS(C)(=O)=O)cc3)cn2)ccc1=O` [Example 45, N-(4-(1-(6-oxo-1-propyl-1,6-dihydropyridin-3-yl)-1H-pyrazol-4-yl)phenyl)methanesulfonamide] are at least 30% and above 75%.
For `CCCc1cc(-n2cc(-c3ccc(NS(=O)(=O)C(C)C)cc3)cn2)ccn1` [Example 4, N-(4-(1-(2-propylpyridin-4-yl)-1H-pyrazol-4-yl)phenyl)propane-2-sulfonamide], the inhibition at 10 µM is above 75%.
Regarding `CCCc1cc(-n2cc(-c3ccc(NS(=O)(=O)CC4CC4)cc3)cn2)ccn1` [Example 2, 1-cyclopropyl-N-(4-(1-(2-propylpyridin-4-yl)-1H-pyrazol-4-yl)phenyl)methanesulfonamide], the inhibition at 10 µM was above 75%.
As for `CCCc1cc(-n2cc(-c3ncc(NS(=O)(=O)C4CC4)cc3Cl)cn2)ccn1` [Example 28, N-(5-chloro-6-(1-(2-propylpyridin-4-yl)-1H-pyrazol-4-yl)pyridin-3-yl)cyclopropanesulfonamide], the inhibition at 1 µM lay within 2 to 30% and the inhibition at 10 µM is above 75%.
With `CCCc1cc(-n2cc(-c3ccc(NC(C)C)nc3)cn2)ccn1` [Example 7, N-isopropyl-5-(1-(2-propylpyridin-4-yl)-1H-pyrazol-4-yl)pyridin-2-amine], the inhibition at 10 µM is above 75%.
With `CCCc1cc(-n2nc(C)c(-c3ccc(NCC(C)C)nc3)c2C)ccn1` [Example 34, 5-(3,5-dimethyl-1-(2-propylpyridin-4-yl)-1H-pyrazol-4-yl)-N-isobutylpyridin-2-amine], the inhibition at 1 µM was in the range of 2 to 30% and the inhibition at 10 µM is 50 to 75%.
The corresponding values for `CCCc1cc(-n2cc(-c3ccc(NCC(C)C)cn3)cn2)ccn1` [Example 15, N-isobutyl-6-(1-(2-propylpyridin-4-yl)-1H-pyrazol-4-yl)pyridin-3-amine] are 2 to 30% and above 75%.
In the case of `CCCc1cc(-n2cc(-c3ccc(NS(=O)(=O)C4CC4)cn3)cn2)ccn1` [Example 18, N-(6-(1-(2-propylpyridin-4-yl)-1H-pyrazol-4-yl)pyridin-3-yl)cyclopropanesulfonamide], the inhibition at 10 µM was above 75%.

Source of the values: US11497738B2, “Di-substituted pyrazole compounds for the treatment of diseases” (FGH BIOTECH, INC., priority 2016, dated 2022).
